Results as given in ChEMBL document CHEMBL3352305, “Podoverine A--a novel microtubule destabilizing natural product from the Podophyllum species” (Bioorg Med Chem, 2014).
Active and inactive are the calls of the source. The calls are words filed in the database; no cut-off is given here.

Key:
[1] = Cell cycle arrest in human PC3 cells assessed as 4N stage DNA at 1 uM for 20 hrs by PI staining/FACS analysis (Rvb =34.4 no unit); type: functional, cell-based; conditions: PC-3
MCF7 [2] = experiment: Cell cycle arrest in human MCF7 cells assessed as <2N stage DNA at 1 uM for 20 hrs by PI staining/FACS analysis (reference value: 0.39 no unit); type: functional
MCF7 [3] = experiment: Cell cycle arrest in human MCF7 cells assessed as 4N stage DNA at 1 uM for 20 hrs by PI staining/FACS analysis (Rvb =40.8 no unit); type: functional
MCF7 [4] = experiment: Cell cycle arrest in human MCF7 cells assessed as >4N stage DNA at 1 uM for 20 hrs by PI staining/FACS analysis (Rvb =23.8 no unit); type: functional
HeLa [5] = experiment: Mitotic arrest in human HeLa cells assessed as increase in accumulation at G2/M phase at 1 uM for 24 hrs by PI staining/FACS analysis; type: functional, cell-based
[6] = Cell cycle arrest in human PC3 cells assessed as >4N stage DNA at 1 uM for 20 hrs by PI staining/FACS analysis (Rvb =23 no unit); type: functional, cell-based; conditions: PC-3
HeLa [7] = experiment: Cell cycle arrest in human HeLa cells assessed as <2N stage DNA at 1 uM for 20 hrs by PI staining/FACS analysis (reference value: 2.19 no unit); type: functional
HeLa [8] = experiment: Cell cycle arrest in human HeLa cells assessed as >4N stage DNA at 1 uM for 20 hrs by PI staining/FACS analysis (reference value: 14.2 no unit); type: functional
HeLa [9] = experiment: Cell cycle arrest in human HeLa cells assessed as 2N stage DNA at 1 uM for 20 hrs by PI staining/FACS analysis (reference value: 58 no unit); type: functional
[10] = Cell cycle arrest in human PC3 cells assessed as <2N stage DNA at 1 uM for 20 hrs by PI staining/FACS analysis (reference value: 0.59 no unit); type: functional, cell-based; conditions: PC-3
HeLa [11] = experiment: Cell cycle arrest in human HeLa cells assessed as 4N stage DNA at 1 uM for 20 hrs by PI staining/FACS analysis (reference value: 24.8 no unit); type: functional
MCF7 [12] = experiment: Cell cycle arrest in human MCF7 cells assessed as 2N stage DNA at 1 uM for 20 hrs by PI staining/FACS analysis (reference value: 31.6 no unit); type: functional
[13] = Cell cycle arrest in human PC3 cells assessed as 2N stage DNA at 1 uM for 20 hrs by PI staining/FACS analysis (reference value: 42 no unit); type: functional, cell-based; conditions: PC-3
BSC-1 [14] = experiment: Mitotic arrest in African green monkey BSC1 cells assessed as accumulation of round cells with intense stained tubulin and DNA structures at 3 uM for 20 hrs by FITC/TRITC staining; type: functional, cell-based; conditions: Chlorocebus aethiops
MCF7 [15] = experiment: Cell cycle arrest in human MCF7 cells assessed as >4N stage DNA at 5 uM for 20 hrs by PI staining/FACS analysis (Rvb =23.8 no unit); type: functional
MCF7 [16] = experiment: Cell cycle arrest in human MCF7 cells assessed as 2N stage DNA at 5 uM for 20 hrs by PI staining/FACS analysis (reference value: 31.6 no unit); type: functional
[17] = Cell cycle arrest in human PC3 cells assessed as <2N stage DNA at 5 uM for 20 hrs by PI staining/FACS analysis (reference value: 0.59 no unit); type: functional, cell-based; conditions: PC-3
HeLa [18] = experiment: Mitotic arrest in human HeLa cells assessed as cells with condensed chromosomes not aligned to metaphase plate at 3 uM for 20 hrs by FITC/TRITC staining; type: functional, cell-based
HeLa [19] = experiment: Cell cycle arrest in human HeLa cells assessed as <2N stage DNA at 5 uM for 20 hrs by PI staining/FACS analysis (reference value: 2.19 no unit); type: functional
[20] = Cell cycle arrest in human PC3 cells assessed as >4N stage DNA at 5 uM for 20 hrs by PI staining/FACS analysis (Rvb =23 no unit); type: functional, cell-based; conditions: PC-3
[21] = Cell cycle arrest in human PC3 cells assessed as 2N stage DNA at 5 uM for 20 hrs by PI staining/FACS analysis (reference value: 42 no unit); type: functional, cell-based; conditions: PC-3
[22] = Cell cycle arrest in human PC3 cells assessed as 4N stage DNA at 5 uM for 20 hrs by PI staining/FACS analysis (Rvb =34.4 no unit); type: functional, cell-based; conditions: PC-3
HeLa [23] = experiment: Cell cycle arrest in human HeLa cells assessed as >4N stage DNA at 5 uM for 20 hrs by PI staining/FACS analysis (reference value: 14.2 no unit); type: functional
Tubulin = experiment: (§1) Displacement of BODIPY-FL-vinblastine from tubulin (unknown origin); type: protein-complex assay, Homo sapiens
Tubulin (Homo sapiens) [24] = molecular target: T1, Tubulin (Homo sapiens) (UniProt P68371+Q9H4B7+P0DPH7+P68366+Q13509+Q71U36+P04350+Q3ZCM7+P07437+P68363+Q9BQE3+Q6PEY2+Q13885+Q9BVA1+Q9BUF5); experiment: as §1; type: protein-complex assay
HeLa [25] = experiment: Cytotoxicity against human HeLa cells assessed as inhibition of cell viability after 24 hrs by WST1 assay; type: functional, cell-based
HeLa [26] = experiment: Mitotic arrest in human HeLa cells assessed as increase in accumulation at G2/M phase at 5 uM for 24 hrs by PI staining/FACS analysis; type: functional, cell-based
MCF7 [27] = experiment: Cell cycle arrest in human MCF7 cells assessed as <2N stage DNA at 5 uM for 20 hrs by PI staining/FACS analysis (reference value: 0.39 no unit); type: functional
HeLa [28] = experiment: Mitotic arrest in human HeLa cells assessed as structure at 3 uM for 60 mins and measured after 20 hrs of washout by FITC staining; type: functional, cell-based
Tubulin (Homo sapiens) [29] = molecular target: T1, Tubulin (Homo sapiens); experiment: Displacement of colchicine from tubulin (unknown origin) by FITC staining; type: protein-complex assay
Tubulin (Sus scrofa) = Tubulin (Sus scrofa) (UniProt P02554+P02550); experiment: Inhibition of porcine brain tubulin polymerization at 50 uM by turbidity assay
HeLa [30] = experiment: Mitotic arrest in human HeLa cells assessed as cells devoid of mitotic spindles at 3 uM for 20 hrs by FITC/TRITC staining; type: functional, cell-based
HeLa [31] = experiment: Cell cycle arrest in human HeLa cells assessed as 2N stage DNA at 5 uM for 20 hrs by PI staining/FACS analysis (reference value: 58 no unit); type: functional
HeLa [32] = experiment: Mitotic arrest in human HeLa cells assessed as structure at 3 uM for 60 mins and measured after 20 hrs of washout and applied 3 uM after washout by FITC staining; type: functional, cell-based
MCF7 [33] = experiment: Cell cycle arrest in human MCF7 cells assessed as 4N stage DNA at 5 uM for 20 hrs by PI staining/FACS analysis (Rvb =40.8 no unit); type: functional
BSC-1 [34] = experiment: Inhibition of repolymerization of microtubule in cold treated African green monkey BSC1 cells at 5 uM for 20 hrs by DAPI staining; type: cell-based; conditions: Chlorocebus aethiops
HeLa [35] = experiment: Mitotic arrest in human HeLa cells assessed as accumulation of round cells with intense stained tubulin and DNA structures at 3 uM for 20 hrs by FITC/TRITC staining; type: functional, cell-based
HeLa [36] = experiment: Cell cycle arrest in human HeLa cells assessed as 4N stage DNA at 5 uM for 20 hrs by PI staining/FACS analysis (reference value: 24.8 no unit); type: functional

Tubulin (Sus scrofa), sequence (P02550 whole entry, looked up): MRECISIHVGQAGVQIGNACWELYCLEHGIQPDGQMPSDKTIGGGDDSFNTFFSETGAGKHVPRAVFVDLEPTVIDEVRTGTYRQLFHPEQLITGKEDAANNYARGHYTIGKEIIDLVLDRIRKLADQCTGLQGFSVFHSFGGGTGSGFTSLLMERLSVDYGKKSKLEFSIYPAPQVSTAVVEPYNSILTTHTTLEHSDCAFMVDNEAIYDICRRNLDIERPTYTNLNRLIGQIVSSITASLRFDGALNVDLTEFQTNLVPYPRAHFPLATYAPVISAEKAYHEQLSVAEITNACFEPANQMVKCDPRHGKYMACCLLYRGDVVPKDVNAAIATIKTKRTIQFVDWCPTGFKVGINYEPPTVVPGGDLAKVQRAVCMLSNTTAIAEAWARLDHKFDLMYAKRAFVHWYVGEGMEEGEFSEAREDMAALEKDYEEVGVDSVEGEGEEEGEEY
Tubulin (Sus scrofa), sequence (P02554 whole entry, looked up): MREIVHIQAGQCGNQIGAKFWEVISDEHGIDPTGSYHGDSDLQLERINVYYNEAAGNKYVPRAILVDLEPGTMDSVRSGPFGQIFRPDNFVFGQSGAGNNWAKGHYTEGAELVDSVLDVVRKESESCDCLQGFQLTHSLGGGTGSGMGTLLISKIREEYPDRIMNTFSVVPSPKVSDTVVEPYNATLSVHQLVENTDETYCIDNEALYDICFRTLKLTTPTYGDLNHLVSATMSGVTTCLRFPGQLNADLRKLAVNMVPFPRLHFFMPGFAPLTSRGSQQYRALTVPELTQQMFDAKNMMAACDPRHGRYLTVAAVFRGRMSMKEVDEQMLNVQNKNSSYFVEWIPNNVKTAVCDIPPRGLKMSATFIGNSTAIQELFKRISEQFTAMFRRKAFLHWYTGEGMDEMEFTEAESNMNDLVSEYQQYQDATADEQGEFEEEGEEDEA

Q: Which Flu intensity [1] does the source give for `COC(=O)Nc1nc2cc(C(=O)c3cccs3)ccc2[nH]1` [NOCODAZOLE] here?
A: Its Flu intensity is 51.7.

Q: What about the Flu intensity (MCF7 [2]) of the same molecule?
A: Its Flu intensity is 0.72.

Q: And the Flu intensity (MCF7 [3])?
A: Its Flu intensity is 57.5.

Q: What about the Flu intensity (MCF7 [4]) of the same molecule?
A: The Flu intensity was 30.7.

Q: What about the Activity (HeLa [5]) of the same molecule?
A: Its Activity is “Active”.

Q: What about the Flu intensity [6] of the same molecule?
A: Its Flu intensity is 29.4.

Q: What about the Flu intensity (HeLa [7]) of the same molecule?
A: The Flu intensity was 9.75.

Q: What about the Flu intensity (HeLa [8]) of the same molecule?
A: The Flu intensity was 16.9.

Q: What about the Flu intensity (HeLa [9]) of the same molecule?
A: The Flu intensity was 8.61.

Q: What about the Flu intensity [10] of the same molecule?
A: The Flu intensity was 10.7.

Q: What about the Flu intensity (HeLa [11]) of the same molecule?
A: The Flu intensity was 64.7.

Q: And the Flu intensity (MCF7 [12])?
A: Its Flu intensity is 9.16.

Q: And the Flu intensity [13]?
A: The Flu intensity was 7.64.

Q: Which Activity (BSC-1 [14]) does the source give for `COc1c(-c2ccc(O)c(O)c2CC=C(C)C)oc2cc(O)cc(O)c2c1=O` here?
A: Its Activity is “Active”.

Q: What about the Flu intensity [1] of the same molecule?
A: Its Flu intensity is 42.

Q: And the Flu intensity (MCF7 [15])?
A: Its Flu intensity is 27.

Q: What about the Flu intensity (MCF7 [2]) of the same molecule?
A: Its Flu intensity is 1.07.

Q: What about the Flu intensity (MCF7 [3]) of the same molecule?
A: Its Flu intensity is 36.3.

Q: And the Flu intensity (MCF7 [16])?
A: Its Flu intensity is 9.57.

Q: And the Flu intensity (MCF7 [4])?
A: The Flu intensity was 29.6.

Q: And the Flu intensity [17]?
A: Its Flu intensity is 12.6.

Q: And the Activity (HeLa [18])?
A: The Activity was “Active”.

Q: And the Flu intensity [6]?
A: Its Flu intensity is 26.5.

Q: And the Flu intensity (HeLa [19])?
A: The Flu intensity was 9.84.

Q: What about the Flu intensity [20] of the same molecule?
A: Its Flu intensity is 30.8.

Q: What about the Flu intensity [21] of the same molecule?
A: The Flu intensity was 9.24.

Q: And the Flu intensity (HeLa [7])?
A: The Flu intensity was 5.6.

Q: What about the Flu intensity [22] of the same molecule?
A: The Flu intensity was 47.5.

Q: What about the Flu intensity (HeLa [8]) of the same molecule?
A: Its Flu intensity is 13.8.

Q: And the Flu intensity (HeLa [23])?
A: The Flu intensity was 21.8.

Q: And the EC50 (Tubulin)?
A: Its EC50 is 14.7 µM.

Q: And the inhibition (Tubulin (Homo sapiens) [24])?
A: Its inhibition is “Dose-dependent effect”.

Q: What about the Flu intensity (HeLa [9]) of the same molecule?
A: Its Flu intensity is 40.4.

Q: And the Flu intensity [10]?
A: The Flu intensity was 2.23.

Q: What about the IC50 (HeLa [25]) of the same molecule?
A: Its IC50 is 0.79 µM.

Q: What about the inhibition (HeLa [25]) of the same molecule?
A: Its inhibition is “Dose-dependent effect”.

Q: And the Activity (HeLa [26])?
A: Its Activity is “Active”.

Q: And the Flu intensity (MCF7 [27])?
A: The Flu intensity was 2.

Q: And the Activity (HeLa [28])?
A: Its Activity is “inactive”.

Q: What about the Activity (Tubulin (Homo sapiens) [29]) of the same molecule?
A: Its Activity is “inactive”.

Q: What about the inhibition (Tubulin (Sus scrofa)) of the same molecule?
A: Its inhibition is “Active”.

Q: What about the Activity (HeLa [30]) of the same molecule?
A: Its Activity is “Active”.

Q: And the Flu intensity (HeLa [31])?
A: The Flu intensity was 9.6.

Q: What about the Flu intensity (HeLa [11]) of the same molecule?
A: The Flu intensity was 40.2.

Q: What about the Flu intensity (MCF7 [12]) of the same molecule?
A: The Flu intensity was 32.

Q: And the Activity (HeLa [32])?
A: The Activity was “Active”.

Q: And the Flu intensity (MCF7 [33])?
A: Its Flu intensity is 61.5.

Q: What about the inhibition (BSC-1 [34]) of the same molecule?
A: The inhibition was “Active”.

Q: And the Activity (HeLa [35])?
A: Its Activity is “Active”.

Q: What about the Flu intensity [13] of the same molecule?
A: The Flu intensity was 27.6.

Q: What about the Flu intensity (HeLa [36]) of the same molecule?
A: Its Flu intensity is 58.2.
